Measured values taken from the supplement of paper PMC13380429.

Tests used:
Conditions in all cases: 72 h
Caco-2 [1] = test: cell viability relative to DMSO; higher = less toxic
Calu-3 [2] = test: as above
HepG2 [3] = test: as above
U2OS [4] = test: as above
Vero E6 [5] = test: as above
Caco-2 [6] = test: relative viability EC50 (midpoint between 100% and the lowest measured viability); higher = less toxic
Calu-3 [7] = test: as above
HepG2 [8] = test: as above
U2OS [9] = test: as above
Vero E6 [10] = test: as above
Caco-2 [11] = test: drug sensitivity score (DSS) for viability; higher = more toxic; extreme values may be limits of the assay
Calu-3 [12] = test: as above
HepG2 [13] = test: as above
U2OS [14] = test: as above
Vero E6 [15] = test: as above

Row | Structure (SMILES) | cell viability (Caco-2 [1]; 1 nM) | cell viability (Caco-2 [1]; 10 nM) | cell viability (Caco-2 [1]; 100 nM) | cell viability (Caco-2 [1]; 1000 nM) | cell viability (Caco-2 [1]; 10000 nM) | cell viability (Calu-3 [2]; 1 nM) | cell viability (Calu-3 [2]; 10 nM) | cell viability (Calu-3 [2]; 100 nM) | cell viability (Calu-3 [2]; 1000 nM) | cell viability (Calu-3 [2]; 10000 nM) | cell viability (HepG2 [3]; 1 nM) | cell viability (HepG2 [3]; 10 nM) | cell viability (HepG2 [3]; 100 nM) | cell viability (HepG2 [3]; 1000 nM) | cell viability (HepG2 [3]; 10000 nM) | cell viability (U2OS [4]; 1 nM) | cell viability (U2OS [4]; 10 nM) | cell viability (U2OS [4]; 100 nM) | cell viability (U2OS [4]; 1000 nM) | cell viability (U2OS [4]; 10000 nM) | cell viability (Vero E6 [5]; 1 nM) | cell viability (Vero E6 [5]; 10 nM) | cell viability (Vero E6 [5]; 100 nM) | cell viability (Vero E6 [5]; 1000 nM) | cell viability (Vero E6 [5]; 10000 nM) | relative viability EC50 (Caco-2 [6]) | relative viability EC50 (Calu-3 [7]) | relative viability EC50 (HepG2 [8]) | relative viability EC50 (U2OS [9]) | relative viability EC50 (Vero E6 [10]) | drug sensitivity score (Caco-2 [11]) | drug sensitivity score (Calu-3 [12]) | drug sensitivity score (HepG2 [13]) | drug sensitivity score (U2OS [14]) | drug sensitivity score (Vero E6 [15])
1 | N[C@@H](CSCCCO)C(=O)O [fudosteine] | 96.1% | 93.9% | 97.3% | 97.2% | 106% | 102% | 111% | 107% | 96.8% | 115% | 93.1% | 83.3% | 96.1% | 88.8% | 105% | 96.4% | 101% | 97.2% | 102% | 108% | 97.7% | 92.7% | 99.6% | 94.1% | 100% | > 10 µM | > 10 µM | > 10 µM | > 10 µM | > 10 µM | 0 | 0 | 0 | 0 | 0
2 | CC(C)=CCC/C(C)=C/CC/C(C)=C/CCC(=O)OC/C=C(\C)CCC=C(C)C [geranyl-farnesylacetate] | 95.6% | 95.8% | 106% | 91.4% | 98.9% | 99.1% | 94.6% | 96.8% | 93% | 96.4% | 101% | 107% | 90.8% | 112% | 110% | 98.4% | 95.3% | 102% | 96.7% | 103% | 104% | 102% | 94.4% | 105% | 115% | > 10 µM | > 10 µM | > 10 µM | > 10 µM | > 10 µM | 0 | 0 | 0 | 0 | 0
3 | CC(C)Cn1cnc2c(N)nc3ccccc3c21 [imiquimod] | 96.4% | 92.9% | 105% | 97.7% | 100% | 103% | 96% | 102% | 94.5% | 103% | 93.6% | 95.5% | 100% | 109% | 112% | 92.7% | 101% | 94.3% | 100% | 105% | 93.1% | 93.2% | 99% | 88.9% | 100% | > 10 µM | > 10 µM | > 10 µM | > 10 µM | > 10 µM | 0 | 0 | 0 | 0 | 0
4 | CNC1CC(c2ccc(Cl)c(Cl)c2)c2ccccc21 (stereo not given) [indatraline] | 99.7% | 103% | 95% | 103% | 86.8% | 102% | 96.3% | 93% | 107% | 89% | 97.6% | 96% | 96.4% | 99% | 92.7% | 100% | 102% | 94% | 102% | 90.1% | 99.4% | 95.4% | 96.4% | 99.4% | 91.7% | > 10 µM | > 10 µM | > 10 µM | > 10 µM | > 10 µM | 0.1 | 0 | 0 | 0 | 0
5 | Nc1nc(OCc2cc(Br)cs2)c2[nH]cnc2n1 [lomeguatrib] | 96.9% | 90.9% | 110% | 96.1% | 100% | 106% | 103% | 95.8% | 102% | 93% | 87.7% | 99.9% | 84% | 98.8% | 100% | 101% | 94.6% | 106% | 100% | 99.7% | 105% | 104% | 95.4% | 102% | 99.9% | > 10 µM | > 10 µM | > 10 µM | > 10 µM | > 10 µM | 0 | 0 | 0 | 0 | 0
6 | Cc1c(F)cc(C(=O)NC2CC2)cc1-c1ccc(C(=O)NCC(C)(C)C)cn1 [losmapimod] | 97% | 90.8% | 90.8% | 83.4% | 80.6% | 110% | 94.4% | 90.5% | 84% | 87.7% | 97.9% | 99.8% | 105% | 103% | 87.3% | 102% | 96.5% | 97.2% | 90.3% | 92.5% | 95.8% | 101% | 92.8% | 88.7% | 80.5% | > 10 µM | > 10 µM | > 10 µM | > 10 µM | > 10 µM | 2.4 | 2.1 | 0 | 0 | 1.3
7 | CN1CCN2c3c(cccc31)[C@@H]1CN(CCCC(=O)c3ccc(F)cc3)CC[C@@H]12 [lumateperone] | 96.5% | 100% | 97.1% | 97.6% | 78.8% | 101% | 112% | 98.3% | 110% | 92.3% | 100% | 91.6% | 103% | 101% | 80.7% | 96.6% | 102% | 94.1% | 99.6% | 89.1% | 98.4% | 92.7% | 101% | 99.6% | 97.3% | > 10 µM | > 10 µM | > 10 µM | > 10 µM | > 10 µM | 1 | 0 | 0.5 | 0 | 0
8 | CN(C)CCOC(=O)COc1ccc(Cl)cc1 [meclofenoxate] | 94.5% | 98.1% | 96.2% | 97.4% | 99.5% | 98% | 95.8% | 87.8% | 106% | 106% | 92.2% | 93.8% | 105% | 94.4% | 108% | 92.5% | 99.7% | 97.3% | 98.3% | 103% | 95.5% | 93.4% | 95.3% | 92.8% | 111% | > 10 µM | > 10 µM | > 10 µM | > 10 µM | > 10 µM | 0 | 0 | 0 | 0 | 0
9 | COc1ccc(Cl)cc1C(=O)NCCc1ccc(C(=O)O)cc1 [meglitinide] | 90.9% | 102% | 94.8% | 91.5% | 98.1% | 108% | 103% | 98.1% | 96.8% | 114% | 109% | 106% | 110% | 88.7% | 94.2% | 101% | 98.2% | 98.6% | 93.4% | 99.6% | 98.4% | 105% | 100% | 104% | 103% | > 10 µM | > 10 µM | > 10 µM | > 10 µM | > 10 µM | 0 | 0 | 0.3 | 0 | 0
10 | CSCC[C@H](NC(=O)[C@H](Cc1ccccc1)NC(=O)CNC(=O)CNC(=O)[C@@H](N)Cc1ccc(O)cc1)C(=O)O [metenkephalin] | 94.7% | 94.9% | 100% | 96.4% | 97.2% | 102% | 99.7% | 105% | 94.3% | 101% | 96.6% | 99% | 91% | 115% | 107% | 103% | 97.1% | 102% | 102% | 102% | 93.8% | 96.5% | 96.7% | 98.4% | 108% | > 10 µM | > 10 µM | > 10 µM | > 10 µM | > 10 µM | 0 | 0 | 0 | 0 | 0
11 | Cc1[nH]c(=O)c(C#N)cc1-c1ccncc1 [milrinone] | 100% | 98.4% | 103% | 87.5% | 85.9% | 95.3% | 89.1% | 99.5% | 108% | 101% | 102% | 101% | 98.3% | 96.2% | 106% | 103% | 95.6% | 99.9% | 97.7% | 100% | 95.6% | 101% | 95.3% | 97.6% | 94.5% | > 10 µM | > 10 µM | > 10 µM | > 10 µM | > 10 µM | 0.9 | 0 | 0 | 0 | 0
12 | CCOC(=O)[N-]c1c[n+](N2CCOCC2)no1 [molsidomine] | 94.4% | 96.5% | 106% | 95.1% | 104% | 95.8% | 88.6% | 91.6% | 91.8% | 89.4% | 87.6% | 95.4% | 97.8% | 106% | 107% | 99.3% | 97.6% | 104% | 99.8% | 102% | 92.1% | 99.7% | 95.5% | 96.4% | 109% | > 10 µM | > 10 µM | > 10 µM | > 10 µM | > 10 µM | 0 | 0.1 | 0 | 0 | 0
13 | CC1CCc2c(N3CCC(O)CC3)c(F)cc3c(=O)c(C(=O)O)cn1c23 (stereo not given) [nadifloxacin] | 104% | 92.1% | 94.7% | 114% | 96.2% | 97.6% | 96.4% | 102% | 105% | 107% | 97% | 111% | 108% | 103% | 107% | 98.9% | 97.5% | 98.6% | 96.1% | 106% | 94.5% | 100% | 97.9% | 95.7% | 106% | > 10 µM | > 10 µM | > 10 µM | > 10 µM | > 10 µM | 0 | 0 | 0 | 0 | 0
